In patent US9187351B2, “Water treatment” (KING TECHNOLOGY INC., priority 2004, dated 2015):

Assays:
[1] = levels of dissolved silver with halogenated hydantoins and a source of silver; type: physicochemical
From the text: Hydantoin structures are also known as complexing agents in silver-plating processes (R. J. Morrissey, U.S. Patent Application Publication no. 2005/0183961). […] While not fully understood it is believed that the aforementioned increased in solubility is due to a soluble complex or association between silver and hydantoin ring structures since it has been found the silver remains soluble to a higher degree than expected thus making more silver ions available for killing harmful microorganism.
DMH is a chemical derivative of hydantoin comprising of a hydantoin ring with two methyl groups attached at the number five position of the ring. DMH is a component of Bromochlordimethyl hydantoin (BCDMH), organic source bromine utilized for disinfecting spa water. […] Additional research performed by the Applicant seems to indicate that the DMH portion of the BCDMH molecule alone may be responsible for the increased solubility of silver. The mechanism of increased silver solubility appears to involve the formation of a DMH/silver complex that has a higher solubility in water than silver salts such as […] or silver chloride. It is should be noted that the antimicrobial activity tends to increase with soluble silver concentration.

bacteria in the pool = experiment: 32,000 gallon outdoor pool sanitized with FROG minerals, chlorine and DMH; bacteria monitored over three months; conditions: about 10 ppm to 12 ppm DMH added to pool treated with FROG minerals (silver chloride on limestone carrier) and chlorine; free chlorine as low as 0.1 ppm; three month period
Protocol: A 32,000 gallon outdoor pool was sanitized using commercially available FROG™ minerals and chlorine. The FROG™ Minerals included silver chloride on a limestone carrier. In addition to the conventional sanitizing treatment using silver chloride and chlorine sufficient DMH was added to the pool to bring the DMH content of the pool to a level of about 10 ppm to 12 ppm DMH in the pool. The free chlorine, total chlorine, pH and the bacteria in the pool were monitored over a three month period. During the period both humans and animals swam in the pool.

[2] = cited from earlier work
microbial growth = experiment: single microbiological assay of the antimicrobial activity of the synthesized DMH/Ag complex; type: cell-based
[3] = used in conjunction with a source of silver

Compound: CC1(C)C(=O)N(Cl)C(=O)N1Br [BCDMH, 1-bromo-3-chloro-5,5dimethylhydantoin]
- levels of dissolved silver ([1]; combined with silver ions in spa water containing bromine): higher than would be anticipated
- levels of dissolved silver [1, 3]: tend to increase levels of dissolved silver

Compound: CC1(C)C(=O)N(Cl)C(=O)N1Cl [DCDMH, 1,3 dichloro-5,5 dimethylhydantoin]
- levels of dissolved silver [1, 3]: tend to increase levels of dissolved silver

Compound: CC1(C)NC(=O)NC1=O [DMH, 5,5-dimethylhydantoin]
- total bacteria count (bacteria in the pool): zero

Compound: O=C1CNC(=O)N1 [Hydantoin]
- solubility in water [2]: slightly soluble in water

Compound: Silver dimethylhydantoin [synthesized DMH/Ag complex]
- antimicrobial activity compared to the equivalent level of silver used alone (microbial growth; synthesized complex): greater antimicrobial activity
- control of microbial growth (microbial growth; without added source of halide): has the potential to control microbial growth without the need for an added source of halide
